Reference: patent US20240207414A1, “DISULFIDE-BASED PRODRUG COMPOUND” (Ludwig-Maximilians-Universitat Munchen, priority 2021, published 2024)

Assays:
[1] = biological target: T1, GR/GSH/Grx (glutaredoxin 1, Grx1) (Homo sapiens, UniProt P35754); test: Enzymatic activation assay: GR/GSH/Grx1; assay type: biochemical; conditions: full mixture NADPH/GR/GSH/Grx1
T1 sequence (P35754 1-106): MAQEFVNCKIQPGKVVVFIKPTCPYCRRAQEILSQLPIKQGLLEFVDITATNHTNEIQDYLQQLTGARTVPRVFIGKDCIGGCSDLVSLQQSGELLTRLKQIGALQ
Description: (§1) This assay (see FIG. 2) examined the resistance of disulfide-based reduction-triggered compounds to the major cellular enzymatic systems that maintain redox homeostasis and are capable of reducing disulfides, evaluated in a cell-free assay, to see if these compounds can be useful for selective enzyme-triggered release.
Assay conditions: A black 96-well plate with black bottom was charged with solutions of fluorophore-releasing reduction-triggered probes that are compounds of the invention (P1, P2) or that are not compounds of the invention and reveal the performance of prior art systems (X19) (50 μL; 40 μM in aq. TE buffer (pH 7.4) and 4 μL DMSO). Separately, master mixes (30 μL in aq. TE buffer (pH 7.4)) containing mixtures of the proteins human recombinant thioredoxin 1 (Trx1, 0.166-16.66 μM) or thioredoxin 2 (Trx2, 3.3 μM), or human recombinant glutaredoxin 1 (“Grx1”, 3.3 μM) or glutaredoxin 2 (Grx2, 3.3 μM) and/or oxidoreductases human recombinant thioredoxin reductase 1 (TrxR1, 0.07 μM), the thioredoxin reductase Secys498Cys mutant (TrxR1-U498C, 0.07 μM), thioredoxin reductase 2 (TrxR2, 0.07 μM) or human recombinant glutathione reductase (GR, 0.07 μM), and/or GSH (3.3 μM) were prepared. Note that TrxR1 (U498C) has decreased reducing power compared to TrxR1 due to the mutation of the key vicinal selenothiol/thiol into a vicinal dithiol, but it still reduces Trx1. […]
(§2) Data Representation: (F(t)-F^NADPH(t)) is the fluorescence intensity of the test solution at time t, from which is subtracted a background fluorescence level also at time t from a solution with NADPH (which itself is fluorescent, and is present in 10-fold higher concentration than the probe) and with the same protein mixture but without the probe. F^max(t) is the maximum possible fluorescence intensity value at time t, determined by incubation with TCEP (100 μM)) similarly as for the chemical reductant assay. (F(t)−F^NADPH(t))/F^max(t) thus gives the timecourse of fluorescence signal, as a fraction of the maximum possible fluorescence signal. […]

[2] = Chemical reductant assay: DTT challenge (cell-free); assay type: physicochemical; conditions: aq. TE buffer pH 7.4, 37° C., 6 h
Description: This assay (see FIG. 1) examined the stability of disulfide-based reduction-triggered compounds of the invention when exposed to monothiol reductants, primarily the major physiological cellular monothiol GSH, and dithiol reductants like the disulfide reductant dithiothreitol (DTT), as evaluated in a cell-free assay, to determine whether these compounds can be useful for selective release.
Assay Conditions: A black 96-well plate with black bottom was charged with solutions of fluorophore-releasing reduction-triggered probes that are compounds of the invention (P1, P2, P3, P4 and P5) or that are not compounds of the invention and reveal the performance of prior art systems (X19) (80 μL; 25 μM in aq. TE buffer (pH 7.4) and 1.25% vol DMSO). Solutions of challenge species chosen from the monothiol glutathione (GSH, 0.1-50 mM) and the dithiol reductant dithiothreitol (DTT, 0.1-50 mM) or phosphine reductant tris-(2-carboxyethyl) phosphine (TCEP); (20 μL; 1 mM in aq. TE buffer (pH 7.4) were added and the reaction mixtures were incubated at 37° C. for 6 h while measuring fluorescence intensity over time [F(t)] using a BMG Labtech FLUOstar Omega platereader (λexc=355 nm, Δem=530 nm for PQ-OH-releasing probes X19, P1 and P2; Δexc=485 nm, Δem=530 nm for MF-OH-releasing probes P3 and P4.
Data Representation: F^max is the maximum possible fluorescence increase corresponding to complete reduction-triggered cargo release, i.e. the fluorescence intensity increase from time zero to signal plateau under TCEP incubation PQ-OH-releasing probes. F(t)/F^max(t) thus gives the timecourse measurements of fluorescence intensity, as a fraction of the maximum possible fluorescence signal. F^sat is the endpoint fluorescence intensity increase for each condition, ie. F^sat=(F(6 h)). F^sat/F^max thus gives the assay endpoint fluorescence intensity increase, as a fraction of the maximum possible fluorescence signal. In the GSH timecourse measurements shown in FIG. 1, all datasets annotated with concentrations only (0.01-10 mM) refer to GSH challenges, while datasets for TCEP positive control (100 μM) and no-reductant control (blank) are shown for comparison. The dose-response plots show F^sat/F^max for the different ratios between probe and GSH or probe and DTT concentrations, with a logarithmic horizontal scale.

[3] = biological target: thioredoxin reductase 2 (TrxR2) (Homo sapiens, UniProt Q9NNW7); test: Enzymatic activation assay: NADPH/TrxR2 without Trx; assay type: biochemical; conditions: NADPH/TrxR2, no Trx added, 37° C., 6 h
Chain of thioredoxin reductase 2 (TrxR2) (Q9NNW7 37-524): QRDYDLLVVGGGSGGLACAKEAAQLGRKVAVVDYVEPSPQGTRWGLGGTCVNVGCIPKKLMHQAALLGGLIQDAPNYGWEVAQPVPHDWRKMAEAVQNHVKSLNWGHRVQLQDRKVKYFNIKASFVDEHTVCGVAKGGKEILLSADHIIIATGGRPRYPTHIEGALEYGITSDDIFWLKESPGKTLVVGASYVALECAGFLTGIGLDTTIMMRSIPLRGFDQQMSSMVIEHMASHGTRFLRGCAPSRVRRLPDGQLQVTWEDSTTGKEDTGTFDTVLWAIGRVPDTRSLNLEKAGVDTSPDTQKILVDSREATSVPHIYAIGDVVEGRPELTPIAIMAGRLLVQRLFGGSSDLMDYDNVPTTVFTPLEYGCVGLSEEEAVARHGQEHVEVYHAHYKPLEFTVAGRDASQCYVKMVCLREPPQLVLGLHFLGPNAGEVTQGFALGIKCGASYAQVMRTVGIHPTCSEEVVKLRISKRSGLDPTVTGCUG
Description: as §1
(§3) Assay conditions: A black 96-well plate with black bottom was charged with solutions of fluorophore-releasing reduction-triggered probes that are compounds of the invention (P1, P2) or that are not compounds of the invention and reveal the performance of prior art systems (X19) (50 μL; 40 μM in aq. TE buffer (pH 7.4) and 4 μL DMSO). […]
as §2

thioredoxin 2 (Trx2) = biological target: T2, thioredoxin 2 (Trx2) (Homo sapiens, UniProt Q99757); test: Enzymatic activation assay: NADPH/TrxR/Trx2 system; assay type: biochemical; conditions: NADPH/TrxR plus Trx2, 37° C., 6 h
T2 sequence (Q99757 60-166): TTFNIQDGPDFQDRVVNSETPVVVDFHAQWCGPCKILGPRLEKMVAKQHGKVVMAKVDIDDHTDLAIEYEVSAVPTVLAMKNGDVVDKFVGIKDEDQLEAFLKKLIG
Description: as §1, §3, §2

[4] = biological target: T3, GR/GSH/Grx (glutaredoxin 2, Grx2) (Homo sapiens, UniProt Q9NS18); test: Enzymatic activation assay: GR/GSH/Grx2; assay type: biochemical; conditions: full mixture NADPH/GR/GSH/Grx2
T3 sequence (Q9NS18 20-164): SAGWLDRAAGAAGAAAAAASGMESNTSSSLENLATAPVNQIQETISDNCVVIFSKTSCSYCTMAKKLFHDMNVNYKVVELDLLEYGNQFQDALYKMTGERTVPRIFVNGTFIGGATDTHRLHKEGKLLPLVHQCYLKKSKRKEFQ
Description: as §1, §3, §2

Row | Compound | cargo release / processing by GR/GSH/Grx1 [1] | activation / cargo release by dithiol reductant DTT [2] | cargo release / processing by TrxR2 [3] | cargo release / processing by TrxR plus Trx2 (thioredoxin 2 (Trx2)) | cargo release / processing by GR/GSH/Grx2 [4]
1 | 4-chloro-2-(6-chloro-4-oxo-3,4-dihydroquinazolin-2-yl)phenyl methyl(2-((2-(methyl amino)ethyl)disulfaneyl)ethyl)carbamate [Compound X19, reference compound] | enhanced reaction kinetics |  |  |  | 
2 | O=C(Oc1ccc(Cl)cc1-c1nc2ccc(Cl)cc2c(=O)[nH]1)N1CCC[C@@H]2CSSC[C@H]21 (racemic) [Compound P1, 4-chloro-2-(6-chloro-4-oxo-3,4-dihydroquinazolin-2-yl)phenyl-(trans)-hexahydro-[1,2]dithiino[4,5-b]pyridine-1(2H)-carboxylate] | only processed by high levels of Grx1 and Grx2 | efficiently activated by dithiol-type reductants | not processed | processed when additional high levels of Trx1 and Trx2 are added | only processed by high levels of Grx1 and Grx2
3 | O=C(Oc1ccc(Cl)cc1-c1nc2ccc(Cl)cc2c(=O)[nH]1)N1CCC[C@@H]2CSSC[C@@H]21 (racemic) [Compound P2, 4-chloro-2-(6-chloro-4-oxo-3,4-dihydroquinazolin-2-yl)phenyl-(cis)-hexahydro-[1,2]dithiino[4,5-b]pyridine-1(2H)-carboxylate] | only processed by high levels of Grx1 and Grx2 | efficiently activated by dithiol-type reductants | not processed | processed when additional high levels of Trx1 and Trx2 are added | only processed by high levels of Grx1 and Grx2
